In PubChem BioAssay (NCI):
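Dose response: 5 concentrations. Exposure: 48 h. Format: 96-well plates. Endpoint: linear interpolation; highest concentration if not reached. GI50 is the concentration that inhibits growth by half. TGI: total growth inhibition.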

Legend:
Test in all cases: inhibition of tumour cell growth, NCI panel, 48 h
[1] = tested on: 786-0 renal
[2] = tested on: HOP-62 NSCLC
[3] = tested on: KM12 colon
[4] = tested on: M14 melanoma
[5] = tested on: NCI-H23 lung
[6] = tested on: SF-295 CNS
[7] = tested on: SW-620 colon
[8] = tested on: TK-10 renal
[9] = tested on: MCF7 breast
[10] = tested on: NCI/ADR-RES ovarian

Row | SMILES | TGI [1] | TGI [2] | TGI [3] | TGI [4] | TGI [5] | TGI [6] | TGI [7] | TGI [8] | GI50 [1] | GI50 [2] | GI50 [3] | GI50 [4] | GI50 [9] | TGI [9] | GI50 [5] | GI50 [6] | GI50 [7] | GI50 [8] | GI50 [10] | TGI [10]
1 | COC(=O)C1(C)CCc2c(OC)ccc(OC)c2C1=O (centres undefined) | > 100 µM | > 100 µM | > 100 µM | > 100 µM | > 100 µM | > 100 µM | > 100 µM | > 100 µM |  |  |  |  |  |  |  |  |  |  |  | 
2 | COc1cc2c(c(OC)c1OC)-c1ccc(SC)c(=O)cc1C(NC(=O)c1ccccc1)CC2 (centres undefined) | 38.3 µM | 21.1 µM | 0.0357 µM | 30.3 µM | 0.903 µM | < 0.0133 µM | 34.7 µM | 64.4 µM |  |  |  |  |  |  |  |  |  |  |  | 
3 | Cc1ccc(-c2nnc(-c3nn(-c4ccccc4)c4nc5ccccc5nc34)o2)cc1 | 21.6 µM | 27.3 µM | > 100 µM | > 100 µM | 40.6 µM | 36.8 µM | > 100 µM | 31.2 µM |  |  |  |  |  |  |  |  |  |  |  | 
4 | O=C(NN1C(=O)CSC12CCCCC2)c1[nH]c2ccc(Br)cc2c1-c1ccccc1 | 38.9 µM | 51.4 µM | 33.4 µM | 79.7 µM | 41.5 µM | 31.9 µM | > 100 µM | 33.2 µM | 18.9 µM | 23.6 µM | 16.9 µM | 27 µM | 14.6 µM | 31.5 µM | 19.4 µM | 16.2 µM | 34.7 µM | 17 µM |  | 
5 | CCOC(=O)C1C(=S)NC(=O)C1C#N (centres undefined) | > 100 µM | > 100 µM | > 100 µM | > 100 µM | > 100 µM | > 100 µM | > 100 µM | > 100 µM |  |  |  |  |  |  |  |  |  |  |  | 
6 | CC(=O)Nc1ccc(SC#N)c2c(NC(C)=O)cccc12 | > 100 µM | > 100 µM | > 100 µM | > 100 µM | > 100 µM | > 100 µM | > 100 µM | > 100 µM |  |  |  |  |  |  |  |  |  |  |  | 
7 | O=C1CC(c2c[nH]c3ccccc23)C(=O)N1 (centres undefined) | > 100 µM | > 100 µM | > 100 µM | > 100 µM | > 100 µM | > 100 µM | > 100 µM | > 100 µM |  |  |  |  |  |  |  |  |  |  |  | 
8 | COc1cc2nc(N3CCCC3)nc(NCCc3ccccc3)c2cc1OC | 3.21 µM | 3.86 µM | 3.74 µM | 3.69 µM | 3.64 µM | 3.43 µM | 3.07 µM | 3.56 µM | 1.71 µM | 1.93 µM | 1.96 µM | 1.8 µM | 1.17 µM | 2.85 µM | 1.8 µM | 1.8 µM | 1.38 µM | 1.97 µM |  | 
9 | Clc1ccc(Nc2nc3ccccc3nc2-c2cccs2)cc1Cl | > 100 µM | > 100 µM |  |  | > 100 µM | > 100 µM | > 100 µM | > 100 µM |  |  |  |  |  |  |  |  |  |  |  | 
10 | C1CCC([PH+](C2CCCCC2)C2CCCCC2[PH+](C2CCCCC2)C2CCCCC2)CC1.[Au].[CH-]1CCCCC1CC1CCCC[N-]1 (centres undefined) | 2.02 µM | 2.58 µM |  | 1.27 µM |  | 1.28 µM | 1.41 µM | 2.05 µM | 0.518 µM | 0.349 µM |  | 0.297 µM |  |  |  | 0.305 µM | 0.371 µM | 0.516 µM | 2.86 µM | > 100 µM
11 | Cc1c(/C=N/N=C/c2[nH]c(C(=O)OC(C)(C)C)c(C)c2C)[nH]c(C(=O)OC(C)(C)C)c1C | > 100 µM | > 100 µM | > 100 µM | > 100 µM | > 100 µM | > 100 µM | > 100 µM | > 100 µM |  |  |  |  |  |  |  |  |  |  |  | 
12 | O=C1OC(Cc2ccccc2)(N2CCCC2=O)C1c1ccccc1 (centres undefined) | > 100 µM | > 100 µM | > 100 µM | > 100 µM | > 100 µM | > 100 µM | > 100 µM | > 100 µM |  |  |  |  |  |  |  |  |  |  |  | 
13 | O=C(NC1CCCCC1)NS(=O)(=O)c1ccc2c(c1)CCC2 | > 100 µM |  | > 100 µM | > 100 µM | > 100 µM | > 100 µM | > 100 µM | > 100 µM |  |  |  |  |  |  |  |  |  |  |  | 
14 | Cc1[nH]c2ccccc2c1C(=O)CC1(O)C(=O)Nc2c(Cl)cc(Cl)cc21 (centres undefined) | > 100 µM | > 100 µM | > 100 µM | 53.9 µM | 44.5 µM | 56.2 µM | 52 µM | > 100 µM |  |  |  |  |  |  |  |  |  |  |  | 
15 | Cc1ccc(/C=C/C(=O)C(C)(C)CN2CCCCC2)cc1 | 18.9 µM | 29.5 µM | 13.4 µM | 20.2 µM | 30.5 µM | 21.3 µM | 7.99 µM | 24.1 µM |  |  |  |  |  |  |  |  |  |  |  | 
16 | CC#CCC1CCC(OCC)=CC1=O (centres undefined) | > 100 µM | > 100 µM | > 100 µM | > 100 µM | > 100 µM | > 100 µM | > 100 µM | > 100 µM |  |  |  |  |  |  |  |  |  |  |  | 
17 | CCC(=O)C12OC3OC(C)(C)OC3C1OC(C)(C)O2 (centres undefined) | > 100 µM | > 100 µM | > 100 µM | > 100 µM | > 100 µM | > 100 µM | > 100 µM | > 100 µM |  |  |  |  |  |  |  |  |  |  |  | 
